Measurements: patent USRE47475E1, “Selective agents for pain suppression” (WiSys Technology Foundation, Inc., priority 2002, dated 2019)
Like-named read-outs stand apart in the source and are kept apart here.

Assays:
[1] = target: T1, GABAA/α5 (α5β3γ2 GABAA receptor) (Homo sapiens, UniProt P18507+P31644); assay: competitive binding assay with [3H]flunitrazepam
T1 construct: expressed in transfected cells
Experimental: (§1) Membranes were harvested with a Brandel cell harvester followed by three ice-cold washes onto polyethyleneimine-pretreated (0.3%) Whatman GF/C filters. Filters were dried overnight and then soaked in Ecoscint, a liquid scintillation cocktail (National Diagnostics; Atlanta, Ga.). Bound radioactivity was quantified by liquid scintillation counting. Membrane protein concentrations were determined using an assay kit from Bio-Rad (Hercules, Calif.) with bovine serum albumin as the standard.
as §1, with “The GABAA subunit selectivity of several compounds prepared as described above were determined using competitive binding assays. […] Membranes” for “Membranes”

[2] = system: neuropathic pain after CCI of the sciatic nerve; assay: chronic constriction injury (CCI) model, mechanical sensitization (von Frey filaments); format: in vivo, mice; conditions: for analgesic effects in the chronic constriction injury model of neuropathic pain: mouse, in vivo
Experimental: In addition, the pro- or antinociceptive effects of the compounds of the present invention are analyzed in the chronic constriction injury (CCI) model. The GABAA receptor subunit selective test compounds of the present invention are analysed in the CCI model in 7-8-week-old C57BL/6 mice. See Bennett, G. J. & Xie, Y. K. A peripheral mononeuropathy in rat that produces disorders of pain sensation like those seen in man. […] Seven to eight week old mice are anesthetized with isofluran. Unilateral constriction injury of the left sciatic nerve just proximal to the trifurcation is performed with three loose ligatures. In sham-operated animals the sciatic nerve is exposed and the connective tissue is freed, but no ligatures are applied. […] Heat hyperalgesia, cold allodynia and mechanical sensitization are assessed 7-9 days after surgery. Mechanical sensitivity is assessed with electronic von Frey filaments (IITC).
Pain studies—Neuropathic pain: HZ166 and gabapentin were analyzed in the chronic constriction injury (CCI) model. Unilateral constriction injury of the left sciatic nerve just proximal to the trifurcation was performed as described previously (Bennett and Xie, 1988). Anesthesia was induced and maintained by 2% isoflurane, combined with oxygen (30%). The sciatic nerve was exposed at the mid-thigh level proximal to the sciatic trifurcation by blunt dissection through the biceps femoris muscle. […] of nerve were freed of adhering tissue and three chromic gut ligatures (4/0) (Ethicon) were loosely put around the nerve with about 1 mm spacing. The ligatures were tied until they elicited a brief twitch in the hindlimb. The surgical wound was closed in layers. Heat hyperalgesia and mechanical sensitization were assessed 7-16 days after surgery.
Pain Studies—Mechanical sensitization: Mechanical sensitivity was assessed with dynamic von Frey filaments (IITC, Woodland Hills, Calif.). 4-5 measurements were made for each time point and animal and averaged. Measurements of paw withdrawal thresholds of the injured paw and of the contralateral paw were made alternately.
Statistical Analysis: For all different doses and vehicle, baseline paw withdrawal thresholds/latencies on day 7 after nerve ligation or on day 2 after zymosan A injection were subtracted from all later withdrawal thresholds and the area under the curve (AUC) was calculated. Drug effects were expressed as percent maximum possible effect (MPE) calculated from comparisons of paw withdrawal latencies or thresholds obtained prior to surgery or inflammation and before and after drug treatment. […] Unless otherwise indicated, statistical comparisons were made with one-way analysis of variance (ANOVA) followed by Scheffe's post hoc test. P values<0.05 were considered significant.

rhesus monkeys = assay: conflict model of anxiolytic activity which also measures sedation; format: in vivo; conditions: for anxiolytic effect (conflict model): intravenously in propylene glycol/water
Experimental: The data in FIGS. 21A-21F reflect the ability of the compounds or drugs to exert an anxioyic effect in rhesus monkeys (J. Rowlett, J. M. Cook et al., unpublished results) when given intravenously in propylene glycol/water solution. This is the conflict model of anxiolytic activity which also measures sedation. […] In FIG. 21B, SH-053-2′F (JY-XHE-053) is anxiolytic at a dose of greater than 0.13 mg/kg, but exerts only some slight sedation at doses greater than 1.2 mg/kg (responses decrease). In FIG. 21C it is clear the S-enantiomer of SH-053-2′F—S—CH3 is anxiolytic with no sedation up to 10-18 mg/kg, which is the highest dose tested.

[3] = system: Formalin Pain (mouse, i.p.); assay: T22 formalin test (chemically induced pain); format: in vivo
Experimental: This elicits a distinct bi-phasic behavioral profile in response to the formalin injection characterized by licking of the affected paw, and the number of licks is measured as a proxy for perceived pain. The first (acute) phase is thought to correspond to the direct stimulation of peripheral fibers while the second (inflammatory) phase is caused by the release of inflammatory mediators from the damaged tissue and nerve endings. Thus, this model is ideally suited for efficacy of an investigational AED against the acute and chronic hyper-responsive neuronal discharges following activation of peripheral nerve fibers.
The results of the formalin test are given both as raw data (“Response”) and in an aggregate, analyzed form (“Analysis”). In the Response section, each Trial involves sixteen animals, eight controls given an i.p. injection of vehicle and eight given the compound at a specified dose. Thus, for multiple doses of the compound, there will also be multiple control groups. The data recorded for each animal is the amount of time(s) spent licking the affected hind paw in a two minute period. These two minute periods occur at five minute intervals and continue for 45 minutes. […] From this plot, we can then determine the area under the curve (AUC) for each animal during both the acute and inflammatory stages. The AUC for each phase is shown in the analysis section of the data sheet for both control and drug-treated animals The AUC for each drug-treated animal is compared to the average result from the control group, yielding an average percent of control (reported with the SEM and p value).

[4] = system: Sciatic Ligation neuropathic pain; assay: T23 partial ligation of the sciatic nerve (mechanical allodynia); format: in vivo, rats; conditions: dose 35.5 (HZ-166), 18 (JY-XHE-053), 1 (XLI-JY-DMH) mg/kg; TPE 2 hr
Experimental: Neuropathic pain. The pro- or antinociceptive effects of the compounds of the present invention are analyzed in two manners. […] Sterile technique will be used throughout the surgery. The upper thigh will be shaved and wiped off with ethanol and betadine. A small incision will then be made in the skin. The underlying muscle of the upper thigh will be separated and the sciatic nerve exposed. The nerve is separated from the surrounding connective tissue and slightly elevated by a pair of fine, curved forceps. Approximately ⅓ to ½ of the nerve is tied off by passing a needle (7.0) and nylon suture through the nerve. The muscle and skin incision are closed off separately with 5.0 suture and the animals kept warm until they have recovered from the anesthesia. This procedure is routinely done on the right side (ipsilateral) while a sham surgery is performed on the left hind leg (contralateral). The latter involves a similar procedure with the exception that the sciatic nerve on this side is only exposed. The rats will be closely monitored daily for the development of infection or untoward effects of the surgery in which case the animals will be immediately euthanized
After an appropriate time for recovery (7 days) the animals will be tested for the development of mechanical allodynia (abnormal response to a non-noxious stimulus). The animals are each put in a bottomless plexiglass box placed on a wire mesh (¼″) platform. After 30-60 minutes in which to acclimate, a baseline mechanical sensitivity is determined. This procedure is done by applying a series of calibrated Von Frey fibres perpendicularly to the plantar surface of each hind paw and holding it there for about 6 secs with enough force to slightly bend the fibre. After a positive response (withdrawal of the foot) is noted a weaker fibre is applied. This is repeated until a 50% threshold for withdrawal can be determined
The allodynic threshold is then redetermined after intraperitoneal administration of an investigational AED. Testing will be conducted at the time-to-peak effect of the AED as determined in the acute seizure model.

[5] = target: T2, GABAA/α1 (α1β3γ2 GABAA receptor) (Homo sapiens, UniProt P14867+P18507); assay: competitive binding assay with [3H]flunitrazepam
T2 construct: expressed in transfected cells
Experimental: as §1
as §1, with “The GABAA subunit selectivity of several compounds prepared as described above were determined using competitive binding assays. […] Membranes” for “Membranes”

[6] = target: T3, GABAA/α2 (α2β3γ2 GABAA receptor) (Homo sapiens, UniProt P18507+P47869); assay: competitive binding assay with [3H]flunitrazepam
T3 construct: expressed in transfected cells
Experimental: as §1
as §1, with “The GABAA subunit selectivity of several compounds prepared as described above were determined using competitive binding assays. […] Membranes” for “Membranes”

[7] = target: T4, GABAA/α3 (α3β3γ2 GABAA receptor) (Homo sapiens, UniProt P18507+P34903); assay: competitive binding assay with [3H]flunitrazepam
T4 construct: expressed in transfected cells
Experimental: as §1
as §1, with “The GABAA subunit selectivity of several compounds prepared as described above were determined using competitive binding assays. […] Membranes” for “Membranes”

C#Cc1ccc2c(c1)C(c1cccs1)=NCc1c(C(=O)OCC)ncn1-2 [JC-221, Ethyl 8-acetyleno-6-(2′-thienyl)-4H-benzo[f]imidazo[1,5-a][1,4]diazepine-3-carboxylate]
Ki ([1]; Binding Affinity at GABAA/α5, Table 3): 14.5 nM

C#Cc1ccc2c(c1)C(c1ccccc1)=NCc1c(C(=O)OCC)ncn1-2 [XHE-II-053, Ethyl 8-acetylenyl-6-phenyl-4H-benzo[f]imidazo[1,5-a][1,4]diazepine-3-carboxylate]
analgesic effect, mechanical sensitivity (von Frey) in CCI model ([2]; 10 mg/kg i.p.): significantly analgesic | analgesic effects in the chronic constriction injury model of neuropathic pain [2]: analgesic effects | sedative activity (conflict model) (rhesus monkeys; intravenously): no sedative activity | anxiolytic effect (conflict model) (rhesus monkeys): anxiolytic

C#Cc1ccc2c(c1)C(c1ccccc1F)=NC(C)c1c(C(=O)OCC)ncn1-2 (single isomer, unassigned) [SH-053-2′F-R-CH3, 8-Ethynyl-6-(2-fluorophenyl)-4-methyl-4H-2,5,10b-triaza-benzo[e]azulene-3-carboxylic acid ethyl ester]
sedative activity (conflict model) (rhesus monkeys; intravenously): not sedating | anxiolytic effect (conflict model) (rhesus monkeys): only a weak anxiolytic

CCOC(=O)c1ncn2c1CN=C(c1ccccn1)c1cc(C#C[Si](C)(C)C)ccc1-2
melting point: 205 to 206 °C

C[Si](C)(C)C#Cc1ccc2c(c1)C(c1ccccc1)=NCc1c(C(=O)OCC(F)(F)F)ncn1-2
melting point: 107 to 110 °C

C[Si](C)(C)C#Cc1ccc2c(c1)C(c1ccccn1)=NCC(=O)N2
melting point: 242 to 243 °C

CCOC(=O)c1ncn2c1CN=C(c1ccccc1)c1cc(Cl)ccc1-2
melting point: 174 to 175 °C

CCOC(=O)c1ncn2c1CN(C)C(=O)c1cc(F)ccc1-2 [Flumazenil, flumazenil, reference compound]
AUC of mechanical PWT, HZ166 followed by flumazenil ([2]; HZ166 16 mg/kg i.p., flumazenil 10 mg/kg i.p. 45 min later, n=6): 0.54 ± 0.25 g·h | effect on the antihyperalgesic effect of HZ166 ([2]; flumazenil 10 mg/kg i.p., HZ166 16 mg/kg): almost completely reversed

CNC1=Nc2ccc(C#C[Si](C)(C)C)cc2C(c2ccccc2)=NC1
melting point: 210 to 211 °C

O=C(OCC(Cl)(Cl)Cl)c1ncn2c1CN=C(c1ccccc1)c1cc(Br)ccc1-2
melting point: 113 to 116 °C

C#Cc1ccc2c(c1)C(c1ccccc1F)=NC(C)c1c(C(=O)OCC)ncn1-2 (single isomer, unassigned) [SH-053-2′F-S-CH3, 8-Ethynyl-6-(2-fluorophenyl)-4-methyl-4H-2,5,10b-triazabenzo[e]azulene-3-carboxylic acid ethyl ester]
no sedation up to dose (rhesus monkeys; conflict model): 10 to 18 mg/kg | anxiolytic effect (conflict model) (rhesus monkeys): anxiolytic

CN1C(=O)CN=C(c2ccccn2)c2cc(C#C[Si](C)(C)C)ccc21
melting point: 194 to 195 °C

C#Cc1ccc2c(c1)C(c1ccccn1)=NCC(=O)N2C
melting point: 190 to 191 °C

C#Cc1ccc2c(c1)C(c1ccccc1F)=NCc1c(C(=O)OCC)ncn1-2 [JY-XHE-053, 8-Acetyleno-6-(2′-fluorophenyl)-4H-benzo[f]imidazo[1,5-a][1,4]diazepine-3-carboxylate]
protection at the acute phase of chemically induced pain ([3]; formalin test, acute phase): insignificant | Change (% of Control) ± SEM, T22 Formalin Pain, Acute ([3]; mouse, i.p., acute phase, dose 16 (HZ-166), 10 (JY-XHE-053), 1 (XLI-JY-DMH) mg/kg): 98.41 % of Control | Change (% of Control) ± SEM, T22 Formalin Pain, inflammatory ([3]; mouse, i.p., inflammatory phase, dose 16 (HZ-166), 10 (JY-XHE-053), 1 (XLI-JY-DMH) mg/kg): 84.58 % of Control | Change (% of Control) ± SEM, T23 Sciatic Ligation [4]: 132 ± 7 % of Control | Significance, T23 Sciatic Ligation [4]: yes | analgesic effect, mechanical sensitivity (von Frey) in CCI model ([2]; 8 mg/kg and 30 mg/kg i.p.): significant analgesic effect | analgesic effects in the chronic constriction injury model of neuropathic pain [2]: analgesic effects | Ki ([5]; Table 3, read-out: Binding Affinity at GABAA/α1): 22 nM | Ki ([6]; Table 3, read-out: Binding Affinity at GABAA/α2): 12.3 nM | Ki ([7]; Table 3, read-out: Binding Affinity at GABAA/α3): 34.9 nM | Ki ([1]; Table 3, read-out: Binding Affinity at GABAA/α5): 0.671 nM | dose at which anxiolytic (rhesus monkeys; intravenously): greater than 0.13 mg/kg

C#Cc1ccc2c(c1)C(c1ccccn1)=NC(C)c1c(C(=O)OCC)ncn1-2 (stereo not drawn) [SH-053-2′N-S-CH3, 8-Ethynyl-4-methyl-6-pyridin-2-yl-4H-2,5,10b-triaza-benzo[e]azulene-3-carboxylic acid ethyl ester]
Ki ([5]; Binding Affinity at GABAA/α1, Table 4, stereoisomers): 6950 nM | Ki ([6]; Binding Affinity at GABAA/α2, Table 4, stereoisomers): 2330 nM | Ki ([7]; Binding Affinity at GABAA/α3, Table 4, stereoisomers): 2650 nM | Ki ([1]; Binding Affinity at GABAA/α5, Table 4, stereoisomers): 744 nM

C#Cc1ccc2c(c1)C(c1ccccc1)=NCc1c(C(=O)OCC(F)(F)F)ncn1-2 [DM-II-20, Trifluoroethyl 8-acetylenyl-6-phenyl-4H-benzo[f]imidazo[1,5-a][1,4]diaze-pine-3-carboxylate]
melting point: 188 to 190 °C
